From patent publication US20250326742A1, “THERAPEUTIC COMPOUNDS” (RUTGERS, THE STATE UNIVERSITY OF NEW JERSEY, priority 2024, published 2025)

How the values were obtained:
SARS-CoV-2 PLpro = SARS-CoV-2 PLpro (Severe acute respiratory syndrome coronavirus 2, UniProt P0DTD1); assay: biochemical; conditions: 200 nM PLpro, 10 μM FRET substrate, 30 min preincubation at 30° C.
Method: FRET-Based PL^pro Enzymatic Assay
The SARS-CoV-2 PL^pro enzymatic assays were carried out as follows: The assay was assembled in 96-well plates with 100 μl of 200 nM PL^Pro protein in PL^Pro reaction buffer [50 mM Hepes (pH 7.5), 0.01% Triton X-100, and 5 mM DTT]. Then, 1 μl of testing compound at various concentrations was added to each well and incubated at 30° C. for 30 minutes. The enzymatic reaction was initiated by adding 1 μl of 1 mM FRET substrate (the final substrate concentration is 10 μM). The reaction was monitored in a Cytation 5 image reader with filters for excitation at 360/40 nm and emission at 460/40 nm at 30° C. for 1 hour. The initial velocity of the enzymatic reaction with and without testing compounds was calculated by linear regression for the first 15 minutes of the kinetic progress curve. The ICso values were calculated by plotting the initial velocity against various concentrations of testing compounds with a dose-response function in Prism 8 software.

[1] = Cytotoxicity assay in Vero E6 cells (neutral red uptake); format: cell-based; conditions: African green monkey, 2 days at 37° C.
Method: Cytotoxicity Assay in Vero E6 Cells
Briefly, 80,000 cells/ml of the tested cell lines were dispensed into 96-well cell culture plates at 100 μl per well. Twenty-four hours later, the growth medium was removed and washed with 150 μl of PBS buffer. Two hundred microliters of fresh serum-free medium containing serial diluted compounds was added to each well. After incubating for 2 days at 37° C., the medium was removed and replaced with 100 μl of DMEM medium containing neutral red (40 μg/ml) and incubated for 2 to 4 hours at 37° C. The amount of neutral red taken up was determined by measuring the absorbance at 540 nm using a Multiskan FC Microplate Photometer (Thermo Fisher Scientific). The CC50 values were calculated from best-fit dose-response curves with variable slope in Prism 8.

Structure (SMILES) | IC50 (SARS-CoV-2 PLpro) | CC50 at 2 days [1]
C#CCNC(=O)CCc1ccccc1C(=O)N[C@H](C)c1cc(-c2cnn(C)c2)cc(-c2ccn(CC)n2)c1 [Example 2, (R)-N-(1-(3-(1-Ethyl-1H-pyrazol-3-yl)-5-(1-methyl-1H-pyrazol-4-yl)phenyl)ethyl)-2-(3-oxo-3-(prop-2-yn-1-ylamino)propyl)benzamide] | 1 to 5 µM | 256 µM
CCn1ccc(-c2cc(-c3cnn(C)c3)cc([C@@H](C)NC(=O)c3ccccc3CCC(=O)NNC(=O)C(Cl)Cl)c2)n1 [Example 3, (R)-2-(3-(2-(2,2-Dichloroacetyl)hydrazineyl)-3-oxopropyl)-N-(1-(3-(1-ethyl-1H-pyrazol-3-yl)-5-(1-methyl-1H-pyrazol-4-yl)phenyl)ethyl)benzamide] | 1 to 5 µM | > 500 µM
C=CC(=O)NNC(=O)CCc1ccccc1C(=O)N[C@H](C)c1cc(-c2cnn(C)c2)cc(-c2ccn(CC)n2)c1 [Example 4, (R)-2-(3-(2-Acryloylhydrazineyl)-3-oxopropyl)-N-(1-(3-(1-ethyl-1H-pyrazol-3-yl)-5-(1-methyl-1H-pyrazol-4-yl)phenyl)ethyl)benzamide] | 1 to 5 µM | > 500 µM
CCn1ccc(-c2cc(-c3cnn(C)c3)cc([C@@H](C)NC(=O)c3ccccc3CCC(=O)NNC(=O)/C=C/CN(C)C)c2)n1 [Example 5, (R,E)-2-(3-(2-(4-(Dimethylamino)but-2-enoyl)hydrazineyl)-3-oxopropyl)-N-(1-(3-(1-ethyl-1H-pyrazol-3-yl)-5-(1-methyl-1H-pyrazol-4-yl)phenyl)ethyl)benzamide] | > 5 µM | > 500 µM
C=CS(=O)(=O)NNC(=O)CCc1ccccc1C(=O)N[C@H](C)c1cc(-c2cnn(C)c2)cc(-c2ccn(CC)n2)c1 [Example 6, (R)-N-(1-(3-(1-Ethyl-1H-pyrazol-3-yl)-5-(1-methyl-1H-pyrazol-4-yl)phenyl)ethyl)-2-(3-oxo-3-(2-(vinylsulfonyl)hydrazineyl)propyl)benzamide] | < 1 µM | 31 µM
CCn1ccc(-c2cc(-c3cnn(C)c3)cc([C@@H](C)NC(=O)c3ccccc3CCC(=O)NNC(=O)/C=C/C(=O)OC(C)(C)C)c2)n1 [Example 7, tert-Butyl (R,E)-4-(2-(3-(2-((1-(3-(1-ethyl-1H-pyrazol-3-yl)-5-(1-methyl-1H-pyrazol-4-yl)phenyl)ethyl)carbamoyl)phenyl)propanoyl)hydrazineyl)-4-oxobut-2-enoate] | < 1 µM | –
CCn1ccc(-c2cc(-c3cnn(C)c3)cc([C@@H](C)NC(=O)c3ccccc3CCC(=O)NNC(=O)/C=C/C(=O)N3CC(C)(C)C3)c2)n1 [Example 8, (R,E)-2-(3-(2-(4-(3,3-Dimethylazetidin-1-yl)-4-oxobut-2-enoyl)hydrazineyl)-3-oxopropyl)-N-(1-(3-(1-ethyl-1H-pyrazol-3-yl)-5-(1-methyl-1H-pyrazol-4-yl)phenyl)ethyl)benzamide] | – | > 250 µM
CCOC(=O)/C=C/C(=O)NNC(=O)CCc1ccccc1C(=O)N[C@H](C)c1cc(-c2cnn(C)c2)cc(-c2ccn(CC)n2)c1 [Example 9, Ethyl (R,E)-4-(2-(3-(2-((1-(3-(1-ethyl-1H-pyrazol-3-yl)-5-(1-methyl-1H-pyrazol-4-yl)phenyl)ethyl)carbamoyl)phenyl)propanoyl)hydrazineyl)-4-oxobut-2-enoate] | < 1 µM | –
CCn1ccc(-c2cc(-c3cnn(C)c3)cc([C@@H](C)NC(=O)c3ccccc3CCC(=O)NNC(=O)/C=C/C(=O)N3CC(C(F)(F)F)C3)c2)n1 [Example 18, (R,E)-N-(1-(3-(1-Ethyl-1H-pyrazol-3-yl)-5-(1-methyl-1H-pyrazol-4-yl)phenyl)ethyl)-2-(3-oxo-3-(2-(4-oxo-4-(3-(trifluoromethyl)azetidin-1-yl)but-2-enoyl)hydrazineyl)propyl)benzamide] | < 1 µM | –
